Measured values taken from patent publication US7090834B1, “Vascular endothelial cell growth factor variants and uses thereof” (Genentech, Inc., priority 1999, dated 2006).

Key:
corneal angiogenesis = assay: Corneal pocket angiogenesis assay; type: in vivo, Sprague-Dawley rats; conditions: rat, pellet with 200 ng growth factor, day 6, FIGS. 15A and 15B
Experimental: Assays were performed as described by Polyerini et al., Methods Enzymol., 198:440–450 (1991) with the following modifications. Sprague-Dawley rats were anesthetized using a gas (isoflurane)/injectable ketamine (80 mg/kg)/xylazine (15 mg/kg) combination. The eyes were gently proptosed and secured in place using nontraumatic forceps. With a #15 blade, a 1.5 mm incision was made slightly below the center of the cornea. Using a micro spatula (ST80017, ASSI), the incision was carefully blunt-dissected through the stroma toward the outer canthus of the eye. […] After surgery, the eyes were coated with gentamicin ointment. At day 6, the animals were injected with high molecular weight FITC-dextran and euthanized to allow for visualization of the vasculature. Corneal whole mounts were made of the enucleated eyes and measurements of the neovascular area completed using computer-assisted image analysis (Image-Pro Plus).

[1] = system: ERK1 and ERK2 in HUVEC cells; assay: Activation of MAP kinases, ERK1/ERK2 phosphorylation Western blot; type: cell-based, human; conditions: 50 ng/ml or 10 ng/ml, 5 minutes, FIG. 12A
Experimental: (§1) Passage 4–7 HUVEC cells (Cell Systems, Kirkland, Wash.) were grown in Cell System's complete medium (AZ0-500) with 10% fetal calf serum and growth factors on gelatin-coated dishes and made quiescent by 14 hour starvation in 0.2% serum. […] The HUVEC cells were then lysed in 0.5–1 ml RIPA buffer containing 0.1 mM sodium orthovanadate, 5 mM para-nitrophenylphosphate, 10 mM sodium fluoride, 0.5 micromolar okadaic acid and a protease inhibitor cocktail (Roche MB 1836145). Western blot analysis was then conducted, probing for phosphorylated ERK1 or ERK2 using anti-phospho ERK antiserum (Promega).

PLC-gamma in HUVEC cells = assay: PLC-gamma tyrosine phosphorylation after immunoprecipitation; type: cell-based, human; conditions: 20 ng/ml, 5 minutes, FIG. 13A
Experimental: In order to determine which VEGF receptor(s) are involved in PLC-gamma activation in primary endothelial cells, HUVEC cells were treated with native VEGF or VEGF receptor-selective variants and PLC-gamma phosphorylation was assessed after immunoprecipitation.
Passage 4–7 HUVEC cells (Cell Systems, Kirkland, Wash.) were grown in Cell System's complete medium (AZ0-500) with 10% fetal calf serum and growth factors on gelatin-coated dishes and made quiescent by 14 hour starvation in 0.2% serum. […] The cells were then lysed in 0.5–1 ml RIPA buffer containing 0.1 mM sodium orthovanadate, 5 mM para-nitrophenylphosphate, 10 mM sodium fluoride, 0.5 micromolar okadaic acid and a protease inhibitor cocktail (Roche MB 1836145). PLC-gamma was then immunoprecipitated from whole cell lysates using monoclonal antibodies (Upstate Biotechnology) and analyzed for tyrosine phosphorylation (FIG. 13A) or lysates were immunoprecipitated with monoclonal antibodies against p85 PI 3′-kinase (purchased from Transduction Labs (P13020) and Neomarkers (MS424-P)) and tested for phosphotyrosine using phosphotyrosine antibodies PY20 or E120H (Transduction Labs) (FIG. 13B). Immunoprecipitation was conducted as follows. Protein A/G beads (Pierce) were blocked for nonspecific protein binding in 50 mM HEPES pH 7.2, 0.1% TX-100, 150 mM NaCl and 1 mg/ml ovalbumin for 30 minutes. Antibodies were precoupled in the same buffer for 1 hour at 4° C. with head over end rotation and beads were washed 3 times in lysis buffer. Beads were added to the lysates and rotated overnight. Beads were washed sequentially in 50 mM Tris pH 7.6, 150 mM NaCl, 1% TX-100, 1 mM CaCl2; 50 mM Tris pH 7.6, 500 mM NaCl, 0.1% TX-100, 1 mM CaCl2 and 50 mM Tris pH 7.6, 150 mM NaCl, 0.05% TX-100, 1 mM CaCl2. Beads were then resuspended in 2× sample buffer and boiled. Supernatants were applied directly to 4–12% Tris-Glycine gradient gels (Novex).

HUVEC cells = assay: HUVEC migration, modified Boyden chamber assay; type: cell-based, human; conditions: 18 hour assay, FIG. 14A
Experimental: One of the central aspects of VEGF action on endothelial cells is its ability to act as a chemoattractant and stimulate the migration of endothelial cells. HUVEC cell migration was analyzed in a modified Boyden chamber assay as follows.
Falcon 8.0 micron filter inserts (Falcon 3097) were coated with type 1 collagen (VITROGEN, COHESION). HUVEC (obtained from Cell Systems, <passage 8) were grown in Cell Systems complete media (4ZO-500) with 10% FCS. Cells were trypsinized and transferred to EBM (Endothelial basal media, Clonetics) with 0.1% BSA for the assay. Cells were plated at 5×10^4 per upper chamber. […] The assay was routinely an 18 hour assay at 37° C. For the LY294002 inhibitor experiments, cells were allowed to adhere for 30 minutes prior to addition of the inhibitor. 20 minutes after inhibitor addition, VEGF was added to the bottom well and the assay was allowed to proceed for only 4 hours to avoid the occurrence of apoptosis associated with the treatment of these primary cells with LY294002 (purchased from Biomol).
Cells were removed from the upper side of the membrane by scraping with a polyurethane swab and then the remaining cells on the bottom side of the membrane were fixed with methanol. Cells were stained with Yo-Pro Iodide nuclear stain (Molecular Probes) and counted under low power fluorescence using an Image-Pro cell recognition program.

[2] = system: p38 stress-activated MAP kinase in HUVEC cells; assay: p38 MAP kinase phosphorylation Western blot; type: cell-based, human; conditions: 50 ng/ml or 10 ng/ml, 5 minutes, FIG. 12B
Experimental: VEGF has previously been reported to stimulate the stress-activated, p38 MAP kinase [Rousseau et al., Oncogene, 15:2169–2177 (1997); Yu et al., J. Cell. Phys., 178:235–246 (1999)].
as §1, with “The” for “The HUVEC”, “The phosphorylation state of p38 stress-activated MAP kinase” for “Western blot analysis”, “assessed with an” for “then conducted, probing for phosphorylated ERK1 or ERK2 using”, “p38 specific” for “ERK”, “(NEB).” for “(Promega).”

KDR receptor = assay: RIA assay, binding to KDR receptor; conditions: compared to native VEGF, FIG. 8A
Experimental: (§2) Various assays were conducted to examine the properties and biological activities of the I43A/I46A/Q79A/I83A Flt-sel variant. For example, quantitative binding measurements were carried out using a soluble radio-immuno receptor-binding assay (RIA), as described in Example 6 above.

[3] = system: MMP-9 secretion by human aorta smooth muscle cells (ASMC); assay: Matrix metalloprotease 9 assay (gelatin zymography); type: cell-based; conditions: 40 ng/ml, 24 hours, compared to native VEGF(1–109) or PlGF, FIG. 11
Experimental: An assay that measures the secretion of matrix metalloprotease 9 following activation of Flt-1 expressed on human smooth aorta muscle cells was conducted (Wang and Keiser, Circ. Res., 83:832–840 (1998)). Human aorta smooth muscle cells (ASMC) (Clonetics) were maintained in SM2 media (Clonetics) at 37° C. in 5% CO2 and 95% ambient air in the presence of 10% fetal bovine serum in 6-well polystyrene plates (Becton-Dickinson). When, cells attained 90% confluence, they were growth-arrested for 24 hours in serum-free medium containing 0.2% bovine serum albumin (BSA). […] After electrophoresis, proteins were renatured by incubation of the gels for 30 minutes at room temperature in Renaturing Buffer and in Developing Buffer (Novex) for overnight at 37° C. The gels were stained with 0.25% Coomassie Brilliant Blue (Sigma). Gelatinase activity was identified as lightly stained or clear bands following destaining.
Shown is a representative zymogram of one of two independent experiments. Fold change represents the relative band density of the VEGF(1–109)-, VEGF(1–109) variants- or PlGF-treated groups versus the vehicle-treated (PBS) control.

Flt-1 receptor = assay: RIA assay, binding to FLT-1 receptor; conditions: FIG. 8B
Experimental: as §2

[4] = molecular target: T1, Flt-1 transfected NIH3T3 cells (Homo sapiens, UniProt P17948); assay: Receptor-transfected cell binding assay, Flt-1; conditions: FIG. 6
T1 construct: expressed in transfected cells; host or cells: NIH3T3 cells
Experimental: (§3) The assay is described in detail in Example 7. Each point represents the average of duplicate determinations, and errors are estimated to be less than 15% of the values.
(§4) KDR or Flt-1 transfected NIH3T3 cells were prepared as described by Fuh et al., J. Biol. Chem., 273:11187–11204 (1998). The transfected cells were maintained in F12 media supplemented with 10% FBS and 400 ug/ml G418 (GibcoBRL). For the binding assays, the cells were plated in 12-wells plates at 1×10^6/well to reach confluency next day. The cells were then washed and blocked in Hank's buffered saline (HBS) with 1% BSA for one hour before adding ^125I-VEGF (1–109) (prepared by standard chloramine-T methods) and increasing concentrations of unlabeled VEGF variants. 50 pM and 10 pM of labeled VEGF (1–109) was used for KDR and Flt-1 cell binding, respectively. The plates were incubated at 4° C. for three hours and then washed two times with HBS with 0.5% BSA. The bound, labeled VEGF was collected by solubilizing the washed cells with 1N NaOH, and then counted in a gamma-counter (Isodata, ICN).

[5] = molecular target: T2, KDR transfected NIH3T3 cells (Homo sapiens, UniProt P35968); assay: Receptor-transfected cell binding assay, KDR; conditions: displacement of 125I-VEGF, 4° C., three hours, FIG. 5
T2 construct: expressed in transfected cells; host or cells: NIH3T3 cells
Experimental: as §3, §4

T2 sequence (P35968 20-1356): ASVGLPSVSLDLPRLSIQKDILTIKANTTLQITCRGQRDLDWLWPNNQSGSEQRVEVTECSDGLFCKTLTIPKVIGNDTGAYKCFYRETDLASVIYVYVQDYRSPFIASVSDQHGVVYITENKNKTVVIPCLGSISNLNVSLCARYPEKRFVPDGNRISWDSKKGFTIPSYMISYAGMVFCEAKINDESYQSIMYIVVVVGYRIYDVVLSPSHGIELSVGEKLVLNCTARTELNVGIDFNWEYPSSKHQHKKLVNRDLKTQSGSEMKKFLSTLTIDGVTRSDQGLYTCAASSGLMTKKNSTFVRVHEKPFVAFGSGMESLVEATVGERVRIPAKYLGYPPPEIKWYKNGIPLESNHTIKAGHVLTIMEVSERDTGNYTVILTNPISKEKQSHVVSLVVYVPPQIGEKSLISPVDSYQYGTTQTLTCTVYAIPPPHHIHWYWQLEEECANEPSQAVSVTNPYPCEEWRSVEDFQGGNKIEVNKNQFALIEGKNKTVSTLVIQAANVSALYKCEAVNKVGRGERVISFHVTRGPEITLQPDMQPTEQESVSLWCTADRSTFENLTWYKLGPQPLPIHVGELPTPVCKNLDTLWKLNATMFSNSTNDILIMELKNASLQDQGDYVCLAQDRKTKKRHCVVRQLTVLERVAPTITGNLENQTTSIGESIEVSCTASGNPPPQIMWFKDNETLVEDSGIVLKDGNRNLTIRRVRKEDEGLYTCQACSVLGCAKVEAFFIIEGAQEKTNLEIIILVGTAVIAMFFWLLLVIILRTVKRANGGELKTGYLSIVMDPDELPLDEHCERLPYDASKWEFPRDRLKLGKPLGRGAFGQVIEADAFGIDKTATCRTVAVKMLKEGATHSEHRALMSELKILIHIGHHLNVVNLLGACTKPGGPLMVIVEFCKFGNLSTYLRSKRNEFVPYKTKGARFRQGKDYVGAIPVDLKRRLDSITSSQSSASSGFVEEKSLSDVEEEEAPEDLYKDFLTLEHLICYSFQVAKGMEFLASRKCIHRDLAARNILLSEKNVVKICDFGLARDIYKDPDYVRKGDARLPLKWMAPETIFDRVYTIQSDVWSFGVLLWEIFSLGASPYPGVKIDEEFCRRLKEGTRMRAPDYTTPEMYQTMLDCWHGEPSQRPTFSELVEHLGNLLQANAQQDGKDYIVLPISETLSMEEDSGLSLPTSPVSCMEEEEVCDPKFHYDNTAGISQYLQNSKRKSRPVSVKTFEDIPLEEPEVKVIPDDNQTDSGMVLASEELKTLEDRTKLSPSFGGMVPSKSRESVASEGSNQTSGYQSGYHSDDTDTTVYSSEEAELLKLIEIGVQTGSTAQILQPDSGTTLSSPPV
Sequence of Flt-1 receptor (P17948 27-331 limits assumed): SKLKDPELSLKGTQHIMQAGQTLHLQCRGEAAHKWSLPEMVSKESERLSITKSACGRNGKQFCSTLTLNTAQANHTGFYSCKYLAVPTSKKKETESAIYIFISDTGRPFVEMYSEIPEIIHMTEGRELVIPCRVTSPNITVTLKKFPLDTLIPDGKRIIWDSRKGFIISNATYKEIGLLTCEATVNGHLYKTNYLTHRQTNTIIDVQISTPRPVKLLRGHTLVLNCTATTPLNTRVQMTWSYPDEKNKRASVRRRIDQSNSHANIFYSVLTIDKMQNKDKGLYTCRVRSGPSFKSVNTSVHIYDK
Sequence of KDR receptor (P35968 20-327 limits assumed): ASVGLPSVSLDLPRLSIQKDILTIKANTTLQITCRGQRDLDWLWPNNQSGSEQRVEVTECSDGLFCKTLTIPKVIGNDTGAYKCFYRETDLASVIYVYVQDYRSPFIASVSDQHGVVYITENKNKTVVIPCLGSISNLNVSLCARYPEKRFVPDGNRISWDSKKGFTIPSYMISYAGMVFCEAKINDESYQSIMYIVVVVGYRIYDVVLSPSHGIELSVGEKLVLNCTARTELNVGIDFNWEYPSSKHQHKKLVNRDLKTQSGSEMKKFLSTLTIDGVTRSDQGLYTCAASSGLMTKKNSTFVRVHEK
T1 sequence (P17948 27-1338): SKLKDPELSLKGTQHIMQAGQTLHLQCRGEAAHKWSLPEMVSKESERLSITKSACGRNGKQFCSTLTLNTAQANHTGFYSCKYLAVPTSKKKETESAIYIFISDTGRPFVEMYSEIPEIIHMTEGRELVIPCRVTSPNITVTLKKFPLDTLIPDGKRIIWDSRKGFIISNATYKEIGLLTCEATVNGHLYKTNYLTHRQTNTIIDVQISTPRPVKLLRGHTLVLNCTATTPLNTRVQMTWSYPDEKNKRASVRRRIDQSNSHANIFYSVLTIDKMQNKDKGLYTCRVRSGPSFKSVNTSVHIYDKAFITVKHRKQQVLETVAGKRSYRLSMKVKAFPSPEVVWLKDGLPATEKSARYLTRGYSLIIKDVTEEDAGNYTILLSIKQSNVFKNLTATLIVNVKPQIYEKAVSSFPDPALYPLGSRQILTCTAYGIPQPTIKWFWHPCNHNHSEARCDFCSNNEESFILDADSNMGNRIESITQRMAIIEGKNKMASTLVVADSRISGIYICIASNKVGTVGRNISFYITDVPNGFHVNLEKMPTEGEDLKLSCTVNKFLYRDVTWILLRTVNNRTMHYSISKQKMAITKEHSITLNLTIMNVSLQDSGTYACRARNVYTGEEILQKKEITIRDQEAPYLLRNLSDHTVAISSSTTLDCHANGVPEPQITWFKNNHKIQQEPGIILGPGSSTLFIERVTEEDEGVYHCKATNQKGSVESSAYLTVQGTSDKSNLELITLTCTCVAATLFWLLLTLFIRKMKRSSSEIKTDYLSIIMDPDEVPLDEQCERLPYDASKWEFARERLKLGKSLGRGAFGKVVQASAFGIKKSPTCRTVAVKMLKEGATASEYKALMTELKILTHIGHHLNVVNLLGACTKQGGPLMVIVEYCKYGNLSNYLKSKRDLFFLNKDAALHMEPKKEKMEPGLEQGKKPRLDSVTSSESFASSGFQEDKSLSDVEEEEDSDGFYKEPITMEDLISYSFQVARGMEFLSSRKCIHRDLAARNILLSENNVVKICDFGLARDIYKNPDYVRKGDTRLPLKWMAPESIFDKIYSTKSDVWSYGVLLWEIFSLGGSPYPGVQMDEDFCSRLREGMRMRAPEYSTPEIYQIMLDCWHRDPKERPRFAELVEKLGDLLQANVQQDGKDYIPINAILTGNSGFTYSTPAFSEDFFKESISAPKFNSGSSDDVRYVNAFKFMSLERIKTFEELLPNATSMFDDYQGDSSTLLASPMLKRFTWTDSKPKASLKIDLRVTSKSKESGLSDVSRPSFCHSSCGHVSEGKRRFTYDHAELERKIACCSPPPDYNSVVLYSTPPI

LK-VRB-2f: full length 1–165 VEGF variant with D63S/G65M/L66R
induction of corneal angiogenesis (corneal angiogenesis): as efficient as native VEGF in inducing corneal angiogenesis
phosphorylation of ERK1 and ERK2 [1]: triggered phosphorylation of ERK1 and ERK2
PLC-gamma phosphorylation (PLC-gamma in HUVEC cells): able to stimulate PLC-gamma phosphorylation to a similar extent
promotion of HUVEC cell migration (HUVEC cells): as effective as the native VEGF
p38 phosphorylation [2]: able to stimulate p38 phosphorylation

B1: Flt-sel: VEGF (1–109) variant with alanine substitutions at Ile 43, Ile 46, Gln 79 and Ile 83; Flt-1 selective (protein)
chain: APMAEGGGQNHHEVVKFMDVYQRSYCHPIETLVDIFQEYPDEAEYAFKPSCVPLMRCGGCCNDEGLECVPTEESNITMAIMRAKPHQGQHIGEMSFLQHNKCECRPKKD
fold reduced KDR-binding affinity (RIA) (KDR receptor): at least 470 fold
stimulation of MMP-9 secretion [3]: fully active
affinity for Flt-1 compared to native protein (RIA) (Flt-1 receptor): essentially identical to that of the native protein
binding to Flt-1-transfected cells [4]: slightly improved binding
binding to KDR-transfected NIH3T3 cells [5]: no detectable binding
